Patent US10131652B2, “Pyrimidinyloxy benzene derivatives as herbicides” (E. I. DU PONT DE NEMOURS AND COMPANY, priority 2014, dated 2018)
Where two headings read alike, the source gives them in different places.

Tests used:
Test in all cases: Test F pre-/postemergence plant response
Assay type in all cases: in vivo
[1] = tested on: Brazilian crabgrass (Digitaria horizontalis); settings: Digitaria horizontalis, scale 0 to 100, read-out: Plant response rating, Crabgrass, Brazil
From the text: (§1) Seeds of plant species selected from corn (Zea mays), soybean (Glycine max), velvetleaf (Abutilon theophrasti), lambsquarters (Chenopodium album), wild poinsettia (Euphorbia heterophylla), palmer pigweed (Amaranthus palmeri), waterhemp (common waterhemp, Amaranthus rudis), surinam grass (Brachiaria decumbens), large (Lg) crabgrass (Digitaria sanguinalis), Brazilian crabgrass (Digitaria horizontalis), fall panicum (Panicum dichotomiflorum), giant foxtail (Setaria faberii), green foxtail (Setaria viridis), goosegrass (Eleusine indica), johnsongrass (Sorghum halepense), ragweed (common ragweed, Ambrosia elatior), barnyardgrass (Echinochloa crus-galli), sandbur (southern sandbur, Cenchrus echinatus), arrowleaf sida (Sida rhombifolia), Italian ryegrass (Lolium multiflorum), dayflower (Virginia (VA) dayflower, Commelina virginica), field bindweed (Convolvulus arvensis), cocklebur (common cocklebur, Xanthium strumarium), momingglory (Ipomoea coccinea), nightshade (eastern black nightshade, Solanum ptycanthum), kochia (Kochia scoparia), yellow nutsedge (Cyperus esculentus), and hairy beggarticks (Bidens pilosa), were planted into a silt loam soil and treated preemergence with test chemicals formulated in a non-phytotoxic solvent mixture which included a surfactant.
(§2) At the same time, plants from these crop and weed species and also waterhemp_RES1, (ALS & Triazine resistant common waterhemp, Amaranthus rudis), and waterhemp_RES2, (ALS & HPPD resistant common waterhemp, Amaranthus rudis) were treated with postemergence applications of test chemicals formulated in the same manner. Plants ranged in height from 2 to 18 cm for postemergence treatments (1- to 4-leaf stage).
(§3) Treated plants and controls were maintained in a greenhouse for 14 to 21 days, after which time all species were compared to controls and visually evaluated. Plant response ratings, summarized in Table F, are based on a scale of 0 to 100 where 0 is no effect and 100 is complete control. A dash (-) response means no test result.

[2] = tested on: Italian ryegrass (Lolium multiflorum); settings: Lolium multiflorum, scale 0 to 100, read-out: Plant response rating, Ryegrass, Italian; for pest or weed control at 31 g/ha: 31 g ai/ha
From the text: as §1, §2, §3

[3] = tested on: barnyardgrass (Echinochloa crus-galli); settings: Echinochloa crus-galli, scale 0 to 100, read-out: Plant response rating, Barnyardgrass
From the text: as §1, §2, §3

[4] = tested on: dayflower (Virginia (VA) dayflower, Commelina virginica); settings: Commelina virginica, scale 0 to 100, read-out: Plant response rating, Dayflower, VA
From the text: as §1, §2, §3

[5] = tested on: green foxtail (Setaria viridis); settings: Setaria viridis, pre-emergence, Preemergence, scale 0 to 100, read-out: Plant response rating, Foxtail, Green
From the text: as §1, §2, §3

[6] = tested on: hairy beggarticks (Bidens pilosa); settings: Bidens pilosa, scale 0 to 100, read-out: Plant response rating, Beggarticks
From the text: as §1, §2, §3

[7] = tested on: johnsongrass (Sorghum halepense); settings: Sorghum halepense, pre-emergence, scale 0 to 100, read-out: Plant response rating, Johnsongrass
From the text: as §1, §2, §3

[8] = tested on: lambsquarters (Chenopodium album); settings: Chenopodium album, pre-emergence, Preemergence, scale 0 to 100, read-out: Plant response rating, Lambsquarters
From the text: as §1, §2, §3

[9] = tested on: large (Lg) crabgrass (Digitaria sanguinalis); settings: Digitaria sanguinalis, pre-emergence, scale 0 to 100, read-out: Plant response rating, Crabgrass, Large
From the text: as §1, §2, §3

[10] = tested on: morningglory (Ipomoea coccinea); settings: Ipomoea, pre-emergence, scale 0 to 100, read-out: Plant response rating, Morningglory
From the text: as §1, §2, §3

[11] = tested on: nightshade (eastern black nightshade, Solanum ptycanthum); settings: Solanum, pre-emergence, scale 0 to 100, read-out: Plant response rating, Nightshade
From the text: as §1, §2, §3

[12] = tested on: ragweed (common ragweed, Ambrosia elatior); settings: Ambrosia artemisiifolia, scale 0 to 100, read-out: Plant response rating, Ragweed
From the text: as §1, §2, §3

[13] = tested on: sandbur (southern sandbur, Cenchrus echinatus); settings: Cenchrus echinatus, scale 0 to 100, read-out: Plant response rating, Sandbur
From the text: as §1, §2, §3

[14] = tested on: waterhemp (common waterhemp, Amaranthus rudis); settings: Amaranthus tuberculatus, scale 0 to 100, read-out: Plant response rating, Waterhemp
From the text: as §1, §2, §3

[15] = tested on: wild poinsettia (Euphorbia heterophylla); settings: Euphorbia heterophylla, scale 0 to 100, read-out: Plant response rating, Poinsettia, Wild
From the text: as §1, §2, §3

[16] = tested on: yellow nutsedge (Cyperus esculentus); settings: Cyperus, pre-emergence, scale 0 to 100, read-out: Plant response rating, Nutsedge, Yellow
From the text: as §1, §2, §3

[17] = post-emergence, 31 g ai/ha Postemergence
[18] = post-emergence, 62 g ai/ha Postemergence
[19] = pre-emergence, 31 g ai/ha Preemergence
[20] = pre-emergence, 62 g ai/ha Preemergence

Fc1cccc(Oc2ncc(Cl)cn2)c1-c1cc(C(F)F)on1 [Compound 55, 5-chloro-2-[2-[5-(difluoromethyl)-3-isoxazolyl]-3-fluorophenoxy]pyrimidine]
pest or weed control at 31 g/ha [1, 17]: 40%
pest or weed control at 62 g/ha [1, 18]: 30%
pest or weed control at 31 g/ha [1, 19]: 75%
pest or weed control at 62 g/ha [1, 20]: 100%
pest or weed control at 31 g/ha ([2]; post-emergence, Postemergence): 0%
pest or weed control at 62 g/ha ([2]; post-emergence, 62 g ai/ha, Postemergence): 10%
pest or weed control at 31 g/ha ([2]; pre-emergence, Preemergence): 0%
pest or weed control at 62 g/ha ([2]; pre-emergence, Preemergence): 30%
pest or weed control at 31 g/ha [3, 17]: 50%
pest or weed control at 62 g/ha [3, 18]: 35%
pest or weed control at 31 g/ha [3, 19]: 10%
pest or weed control at 62 g/ha [3, 20]: 85%
pest or weed control at 31 g/ha [4, 17]: 70%
pest or weed control at 31 g/ha [4, 19]: 60%
pest or weed control at 62 g/ha [4, 20]: 40%
pest or weed control at 31 g/ha ([5]; 31 g ai/ha): 20%
pest or weed control at 62 g/ha [5]: 70%
pest or weed control at 31 g/ha [6, 17]: 55%
pest or weed control at 62 g/ha [6, 18]: 70%
pest or weed control at 31 g/ha [6, 19]: 0%
pest or weed control at 62 g/ha [6, 20]: 0%
pest or weed control at 31 g/ha ([7]; 31 g ai/ha Preemergence): 20%
pest or weed control at 62 g/ha ([7]; Preemergence): 90%
pest or weed control at 31 g/ha ([8]; 31 g ai/ha): 100%
pest or weed control at 62 g/ha [8]: 100%
pest or weed control at 31 g/ha ([9]; 31 g ai/ha Preemergence): 98%
pest or weed control at 62 g/ha ([9]; 62 g ai/ha Preemergence): 100%
pest or weed control at 31 g/ha ([10]; 31 g ai/ha Preemergence): 30%
pest or weed control at 62 g/ha ([10]; Preemergence): 98%
pest or weed control at 31 g/ha ([11]; 31 g ai/ha Preemergence): 98%
pest or weed control at 62 g/ha ([11]; Preemergence): 98%
pest or weed control at 31 g/ha [12, 17]: 55%
pest or weed control at 62 g/ha [12, 18]: 55%
pest or weed control at 31 g/ha [12, 19]: 40%
pest or weed control at 62 g/ha ([12]; pre-emergence, Preemergence): 50%
pest or weed control at 31 g/ha [13, 17]: 25%
pest or weed control at 62 g/ha [13, 18]: 15%
pest or weed control at 31 g/ha [13, 19]: 0%
pest or weed control at 62 g/ha ([13]; pre-emergence, Preemergence): 0%
pest or weed control at 31 g/ha [14, 17]: 90%
pest or weed control at 62 g/ha [14, 18]: 100%
pest or weed control at 31 g/ha [14, 19]: 100%
pest or weed control at 62 g/ha ([14]; pre-emergence, Preemergence): 100%
pest or weed control at 31 g/ha [15, 17]: 35%
pest or weed control at 62 g/ha [15, 18]: 45%
pest or weed control at 31 g/ha [15, 19]: 0%
pest or weed control at 62 g/ha ([15]; pre-emergence, Preemergence): 30%
pest or weed control at 31 g/ha ([16]; 31 g ai/ha Preemergence): 0%
pest or weed control at 62 g/ha ([16]; Preemergence): 0%
